Assay: Bioavailability of levosimendan following buccal and intravenous administration in dogs (plasma concentration)
Format: in vivo, beagle dogs
Details: for concentration at 10 min / concentration at 20 min / concentration at 40 min / concentration at 60 min / concentration at 90 min / concentration at 120 min: beagle, dog, plasma, 0.02 mg/kg; for concentration at 10 min / concentration at 20 min / concentration at 40 min / concentration at 60 min / concentration at 90 min / concentration at 120 min / Levosimendan concentration: dog plasma; for Levosimendan concentration: 0 min
Description: Bioavailability of levosimendan was studied in dogs following buccal and intravenous administration of 0.02 mg/kg of the compound. As experimental animals, three beagle dogs were used. At the time of dosing all animals weighed approximately 10 kg. The dogs were given levosimendan as an intravenous injection or buccal spray at one week intervals. Appropriate concentration (2 mg/ml in 96% ethanol) of the compound was prepared in 10 ml amber glass containers sealed with spray nozzles (50 μl dose, Pfeiffer). The 0.02 mg/kg buccal dose was thus obtained by spraying 2 consecutive 50 μl doses to the buccal cavity of the animals (the dosing volume being thus 0.1 ml/10 kg). The iv dose (0.1 ml/10 kg) was taken from the same bottles.
5 ml of blood was collected from the cephalic vein at the following times after administration: 0, 10, 20, 40, min, 1, 1.5 and 2 hours. Plasma was separated and stored frozen in −20 ° C. until analyzed.
Levosimendan in dog plasma was determined by a non-enantioselective method, in which an automated sample preparation technique combined with high performance liquid chromatography was used. The plasma clean-up was performed by on-line dialysis and the, dialysate was retained on a trace enrichment column. The analyte was then-separated on an analytical column and detected with a UV-detector. The limit of quantitation was 5 ng/ml and the quantitation range 5-500 ng/ml.
The apparatus comprised a Gilson ASTED (Automated Sequential Trace Enrichment System) system (Gilson Medical Electronics, Villiers-le-Bel, France). The dialysis cell was fitted with a Cuprophan cellulose membrane with a molecular cut-off of 15 kDa and the trace enrichment column was a Hypersil ODS (5.8×4.6 mm i.d., 10 μm). The chromatographic system consisted of an LKB Model 2150 pump (Bromma, Sweden) and a Lichrosorb RP-18 (250×4 mm i.d., 10 μm) column (Merck, Darmstadt, Germany). The detector was a Spectra 100 UV-VIS (Spectra-Physics, San Jose, Calif., USA). The wavelength was 380 nm. The mobile phase consisted of a 32 mM monosodium dihydrogen phosphate buffer, methanol, and tetrahydrofuran (45:65:1, v/v/v, pH 3.5). The mobile phase flow rate was 1.0 ml/min.

[1] = other: buccal spray, buccal spray 0.02 mg/kg, Dog 1
[2] = other: buccal spray, buccal spray 0.02 mg/kg, Dog 2
[3] = other: buccal spray, buccal spray 0.02 mg/kg, Dog 3

CC1CC(=O)NN=C1c1ccc(NN=C(C#N)C#N)cc1 (single isomer, unassigned; (-)) [Levosimendan, (-)-enantiomer of [[4-(1,4,5,6-tetrahydro-4-methyl-6-oxo-3-pyridazinyl)phenyl]hydrazono]propanedinitrile]
concentration at 10 min (iv, iv 0.02 mg/kg, Dog 1): 128 ng/mL
concentration at 10 min (iv, iv 0.02 mg/kg, Dog 2): 103 ng/mL
concentration at 10 min (iv, iv 0.02 mg/kg, Dog 3): 100 ng/mL
concentration at 20 min (iv, iv 0.02 mg/kg, Dog 1): 105 ng/mL
concentration at 20 min (iv, iv 0.02 mg/kg, Dog 2): 71 ng/mL
concentration at 20 min (iv, iv 0.02 mg/kg, Dog 3): 82 ng/mL
concentration at 40 min (iv, iv 0.02 mg/kg, Dog 1): 74 ng/mL
concentration at 40 min (iv, iv 0.02 mg/kg, Dog 2): 46 ng/mL
concentration at 40 min (iv, iv 0.02 mg/kg, Dog 3): 58 ng/mL
concentration at 60 min (iv, iv 0.02 mg/kg, Dog 1): 58 ng/mL
concentration at 60 min (iv, iv 0.02 mg/kg, Dog 2): 36 ng/mL
concentration at 60 min (iv, iv 0.02 mg/kg, Dog 3): 46 ng/mL
concentration at 90 min (iv, iv 0.02 mg/kg, Dog 1): 39 ng/mL
concentration at 90 min (iv, iv 0.02 mg/kg, Dog 2): 24 ng/mL
concentration at 90 min (iv, iv 0.02 mg/kg, Dog 3): 33 ng/mL
concentration at 120 min (iv, iv 0.02 mg/kg, Dog 1): 28 ng/mL
concentration at 120 min (iv, iv 0.02 mg/kg, Dog 2): 15 ng/mL
concentration at 120 min (iv, iv 0.02 mg/kg, Dog 3): 25 ng/mL
concentration at 10 min [1]: 10 ng/mL
concentration at 10 min [2]: 17 ng/mL
concentration at 10 min [3]: 7.6 ng/mL
concentration at 20 min [1]: 24 ng/mL
concentration at 20 min [2]: 24 ng/mL
concentration at 20 min [3]: 9.4 ng/mL
concentration at 40 min [1]: 32 ng/mL
concentration at 40 min [2]: 25 ng/mL
concentration at 40 min [3]: 25 ng/mL
concentration at 60 min [1]: 26 ng/mL
concentration at 60 min [2]: 22 ng/mL
concentration at 60 min [3]: 24 ng/mL
concentration at 90 min [1]: 18 ng/mL
concentration at 90 min [2]: 17 ng/mL
concentration at 90 min [3]: 22 ng/mL
concentration at 120 min [1]: 13 ng/mL
concentration at 120 min [2]: 12 ng/mL
concentration at 120 min [3]: 16 ng/mL
Levosimendan concentration (buccal spray 0.02 mg/kg, Dog 1): < (< means below quantitation range)
Levosimendan concentration (buccal spray 0.02 mg/kg, Dog 2): < (< means below quantitation range)
Levosimendan concentration (buccal spray 0.02 mg/kg, Dog 3): < (< means below quantitation range)
Levosimendan concentration (iv 0.02 mg/kg, Dog 1): < (< means below quantitation range)
Levosimendan concentration (iv 0.02 mg/kg, Dog 2): < (< means below quantitation range)
Levosimendan concentration (iv 0.02 mg/kg, Dog 3): < (< means below quantitation range)
Absorption into blood from the buccal spray (dogs, buccal spray 0.02 mg/kg): rapidly absorbed into blood
Serum levels of levosimendan (dogs, buccal spray 0.02 mg/kg): steady serum levels

— patent publication US6399610B1, “Transmucosal formulations of levosimendan” (Orion Corporation, priority 1997, dated 2002)
